Experimental data published in US20100234390A1, “NOVEL COMPOUND AND THEIR USE” (priority 2007, published 2010).
≈ marks a conversion by molar mass, not a printed value.

What was measured:
Test in all cases: Agar dilution MIC
S. aureus ATCC 29213 = assay type: cell-based, Staphylococcus aureus; details: Staphylococcus aureus, ATCC29213, 35° C., 16-20 hours, read-out: Antimicrobial Screening (MIC)
Description: (§1) Briefly, the compounds of invention were weighed, dissolved in dimethyl sulfoxide, serially two fold diluted in the same solvent and then incorporated into molten Mueller Hinton Agar (MHA) in a petridish just before solidification, with each petridish containing a different concentration of a compound.
(§2) The bacterial inoculum was prepared by picking 3 to 5 well isolated bacterial colonies with the same morphological appearance from an 18-24 hours old culture with an inoculating loop, transferring the growth to a tube containing 3 mL of normal saline and adjusting the turbidity of the saline suspension to 0.5 Mc Farland Turbidity Standard equivalent to a bacterial population of 1.5×10^8 colony forming units (CFU) per mL of suspension. The suspension was diluted 1:10 in saline (i.e. 0.5 mL suspension 4.5 mL saline) to get a bacterial population of 1.5×10^7 CFU/mL as inoculum.
(§3) The inoculated petridishes were incubated at 35° C. in an ambient atmosphere for 16-20 hours.

S. aureus ATCC 43300 = assay type: cell-based, Staphylococcus aureus; details: Staphylococcus aureus, ATCC43300, 35° C., 16-20 hours, read-out: Antimicrobial Screening (MIC)
Description: as §1, §2, §3

S. aureus MRO 00013 = assay type: cell-based, Staphylococcus aureus; details: Staphylococcus aureus, MRO00013, 35° C., 16-20 hours, read-out: Antimicrobial Screening (MIC)
Description: as §1, §2, §3

S. aureus MRO 0001 = assay type: cell-based, Staphylococcus aureus; details: Staphylococcus aureus, MRO0001, 35° C., 16-20 hours, read-out: Antimicrobial Screening (MIC)
Description: as §1, §2, §3

S. aureus MRO 00030 = assay type: cell-based, Staphylococcus aureus; details: Staphylococcus aureus, MRO00030, 35° C., 16-20 hours, read-out: Antimicrobial Screening (MIC)
Description: as §1, §2, §3

S. aureus MRO 0003 = assay type: cell-based, Staphylococcus aureus; details: Staphylococcus aureus, MRO0003, 35° C., 16-20 hours, read-out: Antimicrobial Screening (MIC)
Description: as §1, §2, §3

S. aureus MRO 00048 = assay type: cell-based, Staphylococcus aureus; details: Staphylococcus aureus, MRO00048, 35° C., 16-20 hours, read-out: Antimicrobial Screening (MIC)
Description: as §1, §2, §3

S. aureus MRO 00055 = assay type: cell-based, Staphylococcus aureus; details: Staphylococcus aureus, MRO00055, 35° C., 16-20 hours, read-out: Antimicrobial Screening (MIC)
Description: as §1, §2, §3

S. aureus MRO 00059 = assay type: cell-based, Staphylococcus aureus; details: Staphylococcus aureus, MRO00059, 35° C., 16-20 hours, read-out: Antimicrobial Screening (MIC)
Description: as §1, §2, §3

S. aureus MRO 002053 = assay type: cell-based, Staphylococcus aureus; details: Staphylococcus aureus, MRO002053, 35° C., 16-20 hours, read-out: Antimicrobial Screening (MIC)
Description: as §1, §2, §3

[1] = test system: S. epidermidis MRO 002046; assay type: cell-based; details: Staphylococcus epidermidis, MRO002046, 35° C., 16-20 hours, read-out: Antimicrobial Screening (MIC)
Description: as §1, §2, §3

S. epidermidis MRO 02002 = assay type: cell-based; details: Staphylococcus epidermidis, MRO02002, 35° C., 16-20 hours, read-out: Antimicrobial Screening (MIC)
Description: as §1, §2, §3

S. epidermidis MRO 02045 = assay type: cell-based; details: Staphylococcus epidermidis, MRO02045, 35° C., 16-20 hours, read-out: Antimicrobial Screening (MIC)
Description: as §1, §2, §3

S. epidermidis MRO 02095 = assay type: cell-based; details: Staphylococcus epidermidis, MRO02095, 35° C., 16-20 hours, read-out: Antimicrobial Screening (MIC)
Description: as §1, §2, §3

[2] = test system: S. haemolyticus MRO 02064; assay type: cell-based; details: Staphylococcus haemolyticus, MRO02064, 35° C., 16-20 hours, read-out: Antimicrobial Screening (MIC)
Description: as §1, §2, §3

[3] = test system: S. saprophyticus MRO 02003; assay type: cell-based; details: Staphylococcus saprophyticus, MRO02003, 35° C., 16-20 hours, read-out: Antimicrobial Screening (MIC)
Description: as §1, §2, §3

E. faecalis ATCC 29212 = assay type: cell-based, Enterococcus faecalis; details: Enterococcus faecalis, ATCC29212, 35° C., 16-20 hours, read-out: Antimicrobial Screening (MIC)
Description: as §1, §2, §3

E. faecalis ATCC 51299 = assay type: cell-based, Enterococcus faecalis; details: Enterococcus faecalis, ATCC51299, 35° C., 16-20 hours, read-out: Antimicrobial Screening (MIC)
Description: as §1, §2, §3

E. faecalis MRO 04035 = assay type: cell-based, Enterococcus faecalis; details: Enterococcus faecalis, MRO04035, 35° C., 16-20 hours, read-out: Antimicrobial Screening (MIC)
Description: as §1, §2, §3

E. faecalis MRO 04050 = assay type: cell-based, Enterococcus faecalis; details: Enterococcus faecalis, MRO04050, 35° C., 16-20 hours, read-out: Antimicrobial Screening (MIC)
Description: as §1, §2, §3

E. faecalis MRO 04205 = assay type: cell-based, Enterococcus faecalis; details: Enterococcus faecalis, MRO04205, 35° C., 16-20 hours, read-out: Antimicrobial Screening (MIC)
Description: as §1, §2, §3

E. faecium ATCC 700221 = assay type: cell-based, Enterococcus faecium; details: Enterococcus faecium, ATCC700221, 35° C., 16-20 hours, read-out: Antimicrobial Screening (MIC)
Description: as §1, §2, §3

E. faecium MRO 04037 = assay type: cell-based, Enterococcus faecium; details: Enterococcus faecium, MRO04037, 35° C., 16-20 hours, read-out: Antimicrobial Screening (MIC)
Description: as §1, §2, §3

E. faecium MRO 04038 = assay type: cell-based, Enterococcus faecium; details: Enterococcus faecium, MRO04038, 35° C., 16-20 hours, read-out: Antimicrobial Screening (MIC)
Description: as §1, §2, §3

E. faecium MRO 04198 = assay type: cell-based, Enterococcus faecium; details: Enterococcus faecium, MRO04198, 35° C., 16-20 hours, read-out: Antimicrobial Screening (MIC)
Description: as §1, §2, §3

[4] = test system: M. catarrhalis ATCC 43617; assay type: cell-based, Moraxella catarrhalis; details: Moraxella catarrhalis, ATCC43617, 35° C., 16-20 hours, read-out: Antimicrobial Screening (MIC)
Description: as §1, §2, §3

[5] = test system: M. catarrhalis ATCC 43627; assay type: cell-based, Moraxella catarrhalis; details: Moraxella catarrhalis, ATCC43627, 35° C., 16-20 hours, read-out: Antimicrobial Screening (MIC)
Description: as §1, §2, §3

[6] = test system: M. catarrhalis ATCC 43628; assay type: cell-based, Moraxella catarrhalis; details: Moraxella catarrhalis, ATCC43628, 35° C., 16-20 hours, read-out: Antimicrobial Screening (MIC)
Description: as §1, §2, §3

| SMILES | MIC (S. aureus ATCC 29213) | MIC (S. aureus ATCC 43300) | MIC (S. aureus MRO 00013) | MIC (S. aureus MRO 0001) | MIC (S. aureus MRO 00030) | MIC (S. aureus MRO 0003) | MIC (S. aureus MRO 00048) | MIC (S. aureus MRO 00055) | MIC (S. aureus MRO 00059) | MIC (S. aureus MRO 002053) | MIC [1] | MIC (S. epidermidis MRO 02002) | MIC (S. epidermidis MRO 02045) | MIC (S. epidermidis MRO 02095) | MIC [2] | MIC [3] | MIC (E. faecalis ATCC 29212) | MIC (E. faecalis ATCC 51299) | MIC (E. faecalis MRO 04035) | MIC (E. faecalis MRO 04050) | further results |
| --- | --- | --- | --- | --- | --- | --- | --- | --- | --- | --- | --- | --- | --- | --- | --- | --- | --- | --- | --- | --- | --- |
| COC(=S)NC[C@H]1CN(c2ccc(N3CCN(C(=O)COCc4ccccc4)CC3)c(F)c2)C(=O)O1 [Example 45, (S)—O-Methyl (3-(4-(4-(2-(benzyloxy)acetyl)piperazin-1-yl)-3-fluorophenyl)-2-oxooxazolidin-5-yl)methylcarbamothioate] | 1 µg/mL (≈ 1.94 µM) | 0.5 µg/mL (≈ 0.968 µM) | 1 µg/mL (≈ 1.94 µM) | 0.5 µg/mL (≈ 0.968 µM) | 1 µg/mL (≈ 1.94 µM) | 1 µg/mL (≈ 1.94 µM) | 0.5 µg/mL (≈ 0.968 µM) | 1 µg/mL (≈ 1.94 µM) | 0.5 µg/mL (≈ 0.968 µM) | 1 µg/mL (≈ 1.94 µM) | 1 µg/mL (≈ 1.94 µM) | 1 µg/mL (≈ 1.94 µM) | 1 µg/mL (≈ 1.94 µM) | 1 µg/mL (≈ 1.94 µM) | 0.5 µg/mL (≈ 0.968 µM) | 1 µg/mL (≈ 1.94 µM) | 0.5 µg/mL (≈ 0.968 µM) | 0.5 µg/mL (≈ 0.968 µM) | 0.5 µg/mL (≈ 0.968 µM) | 0.5 µg/mL (≈ 0.968 µM) | MIC (E. faecalis MRO 04205): 0.5 µg/mL (≈ 0.968 µM); MIC (E. faecium ATCC 700221): 0.5 µg/mL (≈ 0.968 µM); MIC (E. faecium MRO 04037): 0.5 µg/mL (≈ 0.968 µM); MIC (E. faecium MRO 04038): 0.5 µg/mL (≈ 0.968 µM); MIC (E. faecium MRO 04198): 0.5 µg/mL (≈ 0.968 µM); MIC [4]: 0.5 µg/mL (≈ 0.968 µM); MIC [5]: 2 µg/mL (≈ 3.87 µM); MIC [6]: 1 µg/mL (≈ 1.94 µM) |
| COC(=S)NC[C@H]1CN(c2ccc(N3CCN(C(=O)C4CC4)CC3)c(F)c2)C(=O)O1 [Example 47, (S)—O-Methyl (3-(4-(4-(cyclopropanecarbonyl)piperazin-1-yl)-3-fluorophenyl)-2-oxooxazolidin-5-yl)methylcarbamothioate] | 1 µg/mL (≈ 2.29 µM) | 0.5 µg/mL (≈ 1.15 µM) | 1 µg/mL (≈ 2.29 µM) | 0.5 µg/mL (≈ 1.15 µM) | 1 µg/mL (≈ 2.29 µM) | 1 µg/mL (≈ 2.29 µM) | 0.5 µg/mL (≈ 1.15 µM) | 1 µg/mL (≈ 2.29 µM) | 0.5 µg/mL (≈ 1.15 µM) | 0.5 µg/mL (≈ 1.15 µM) | 0.5 µg/mL (≈ 1.15 µM) | 1 µg/mL (≈ 2.29 µM) | 1 µg/mL (≈ 2.29 µM) | 0.5 µg/mL (≈ 1.15 µM) | 0.5 µg/mL (≈ 1.15 µM) | 1 µg/mL (≈ 2.29 µM) | 0.5 µg/mL (≈ 1.15 µM) | 0.5 µg/mL (≈ 1.15 µM) | 0.5 µg/mL (≈ 1.15 µM) | 0.5 µg/mL (≈ 1.15 µM) | MIC (E. faecalis MRO 04205): 0.5 µg/mL (≈ 1.15 µM); MIC (E. faecium ATCC 700221): 0.5 µg/mL (≈ 1.15 µM); MIC (E. faecium MRO 04037): 0.5 µg/mL (≈ 1.15 µM); MIC (E. faecium MRO 04038): 0.5 µg/mL (≈ 1.15 µM); MIC (E. faecium MRO 04198): 0.5 µg/mL (≈ 1.15 µM); MIC [4]: 1 µg/mL (≈ 2.29 µM); MIC [5]: 2 µg/mL (≈ 4.58 µM); MIC [6]: 2 µg/mL (≈ 4.58 µM) |
| COC(=S)NC[C@H]1CN(c2ccc(N3CCN(C(=O)Cn4cnnn4)CC3)c(F)c2)C(=O)O1 [Example 72, (S)—O-Methyl (3-(4-(4-(2-(1H-tetrazol-1-yl)acetyl)piperazin-1-yl)-3-fluorophenyl)-2-oxooxazolidin-5-yl)methylcarbamothioate] | 1 µg/mL (≈ 2.09 µM) | 1 µg/mL (≈ 2.09 µM) | 1 µg/mL (≈ 2.09 µM) | 0.5 µg/mL (≈ 1.04 µM) | 0.5 µg/mL (≈ 1.04 µM) | 1 µg/mL (≈ 2.09 µM) | 0.5 µg/mL (≈ 1.04 µM) | 1 µg/mL (≈ 2.09 µM) | 0.5 µg/mL (≈ 1.04 µM) | 0.5 µg/mL (≈ 1.04 µM) | 0.5 µg/mL (≈ 1.04 µM) | 0.5 µg/mL (≈ 1.04 µM) | 0.5 µg/mL (≈ 1.04 µM) | 0.5 µg/mL (≈ 1.04 µM) | 0.5 µg/mL (≈ 1.04 µM) | 1 µg/mL (≈ 2.09 µM) | 0.5 µg/mL (≈ 1.04 µM) | 0.5 µg/mL (≈ 1.04 µM) | 0.5 µg/mL (≈ 1.04 µM) | 0.5 µg/mL (≈ 1.04 µM) | MIC (E. faecalis MRO 04205): 0.5 µg/mL (≈ 1.04 µM); MIC (E. faecium ATCC 700221): 0.5 µg/mL (≈ 1.04 µM); MIC (E. faecium MRO 04037): 0.5 µg/mL (≈ 1.04 µM); MIC (E. faecium MRO 04038): 0.5 µg/mL (≈ 1.04 µM); MIC (E. faecium MRO 04198): 0.5 µg/mL (≈ 1.04 µM); MIC [4]: 2 µg/mL (≈ 4.18 µM); MIC [5]: 2 µg/mL (≈ 4.18 µM); MIC [6]: 2 µg/mL (≈ 4.18 µM) |
